According to patent US20260365696A1, “INHIBITORS OF PTP1B / NCK1 INTERACTION AND METHODS OF MAKING AND USING SAME” (Radella Pharmaceuticals LLC, priority 2023, published 2026):
“Also recorded” adds a separate entry of the source.

What was measured:
[1] = In vivo biodistribution / pharmacokinetics in C57/BL6 mice; design: species or system mouse; conditions: 30 mg/kg IP
Procedure: FIG. 6 is a graph showing MD20 concentrations in the indicated tissues in a mouse following intraperitoneal (IP) administration of the peptide at a dose of 30 mg/kg. Tissue samples were collected at 0, 0.25, 0.5, 1, 2, 4, 8, and 24 hours post-injection.
Biodistribution: In vivo pharmacokinetic assessments of biodistribution of MD20 were performed in C57/BL6 male mice. All animals were maintained under a 12 h light/dark cycle with free access to food and water, where temperature and humidity was controlled according to UK Home Office regulations. MD20 compound was dissolved in PBS and administered to animals via intraperitoneal (IP) injection at a dose of 30 mg/kg. Mice were sacrificed at eight different time points (0.25, 0.5, 1, 3, 4, 6, 8 and 24 h house post-dosing; n=3 animals per time point, 24 animals in total). Terminal blood (in EDTA-containing tubes for plasma), perfused liver, muscle, adipose, kidney and brain samples were collected and kept on dry ice. Blood samples were centrifuged (4 °C, 21,100 g for 5 min) and the resulting plasma was transferred in to corresponding tubes. All samples were analyzed using LC-MS and appropriate methods.

db/db mice = assay: db/db genetic mouse model of diabetes and obesity; format: in vivo
Description: Animals: All animals were housed and tested following European (Directive on the Protection of Animals used for Scientific Purposes, 2010/63/EU) and UK Home Office regulations. Experiments were approved by the University Ethics Board and carried out in accordance with the Animal (Scientific Procedures) Act 1986 and following ARRIVE guidelines. Db/db male mice (~4 weeks old) were purchased from Jackson, USA. All mice received standard mouse chow diet and had ad libitum access to food and water and were kept in a 12 h light/dark cycle.
Treatments: Mice were assigned and counterbalanced according to their body weights in to the following groups: control PBS (n=10); MD18 at 15 mg/kg (n=7), 30 mg/kg (n=8), or 45 mg/kg (n=7); or MD20 at 15 mg/kg (n=9), 30 mg/kg (n=10) or 45 mg/kg (n=7). MD18 and MD20 were administered once daily via subcutaneous (SC) injection for 41 days, whereas control mice received a daily SC injection of vehicle (PBS). MD18 and MD20 were kept in −20 °C and dissolved in sterile phosphate buffered saline (PBS).
Body weights and body mass composition: Body weights were recorded twice weekly during the study, and fat mass and lean mass composition was analysed using an EchoMRI scanner (EchoMedical Systems, Houston, TX, U.S.A.).
Metabolic measurements: All animals were five-hour fasted before obtaining basal glucose measurements and GTT, ITT, and corresponding treatments were administered 1 hour before glucose measurements. Tail blood glucose was measured using AlphaTRAK 2 glucose strips and glucometer (Abbot, UK), or blood was collected and glucose assay (AB65333, Abcam) was performed where readings were too high to be recorded via glucometer. Human Actrapid Insulin (NovaNordisk) at 1 IU/kg dose was administered during ITT.
Serum and liver assays: Trunk-derived blood was collected from 5 h-fasted mice into serum separator microtubes and kept at −80 °C. Serum was used for insulin (#EZRMI-13K, Merck) and leptin (#90030, Crystal Chem) analyses.
Statistical analyses: Data were reported as means±SEM and analysed using one- or two-way ANOVA with Bonferroni post hoc tests, as appropriate. GraphPad Prism (V8, GraphPad Software, Inc., San Diego, California, USA) was used for statistical analyses. P-values <0.05 were considered significant.

GLUT4 = GLUT4 gene expression in adipose tissue of LDLR−/− mice (qPCR); format: in vivo, mouse; conditions: 30 mg/kg IP daily, vs control
Procedure: (§1) FIGS. 30A-30E are graphs showing expression of various genes in tissues of HFD-fed LDLR−/− mice following 6 weeks of daily IP administration of MD20 (30 mg/kg) or a vehicle control. Mice were fasted for 5 hours at the conclusion of the experiment, liver and white adipose tissue (“WAT”) samples were collected, and gene expression was measured by qRT-PCR. Expression of glucose transporter 4 (GLUT4; FIG. 30A) and stearoyl-CoA-desaturase 1 (SCD1; FIG. 30B) was measured in adipose tissue, and expression of Glucose-6-phosphatase (G6P; FIG. 30C), Activating Transcription Factor 4 (ATF4; FIG. 30D), and 3-hydroxy-3-methylglutaryl (HMGCS; FIG. 30E) was measured in liver tissue. Data represent mean±SEM; statistical differences were determined using two tailed student's t-test.
(§2) Gene expression analyses: Livers and adipose tissue were collected from 5 h-fasted animals and snap-frozen in liquid nitrogen. RNA was isolated from frozen liver tissue using TRIzole (Sigma, UK) and cDNA was synthesized from 1 μg RNA using bioscript cDNA synthesis kit (Bioline, UK), oligo (dT) 18 (SEQ ID NO: 170), and random hexamer primers.
(§3) Genes of interest were amplified by quantitative PCR (qPCR) using gene-specific primers and GoTaq qPCR master mix (Promega, Madison, WI, USA).

ATF4 = ATF4 gene expression in liver of LDLR−/− mice (qPCR); format: in vivo, mouse; conditions: 30 mg/kg IP daily, vs control
Procedure: as §1, §2, §3

With Ac-PRPPKR-NH2 [MD20, Ac-PRPPKR-NH2] the “detection in most tissues and plasma, time post-administration” value [1] was “up to 5 h”, the “stability and bioavailability in vivo” value [1] was “good stability and bioavailability in vivo” and the detection in liver ([1]; any time point) was “No MD20 was detected in the liver; also recorded: not detected in liver tissue at any time point”. The fasted insulin levels (db/db mice; 15 mg/kg SC daily, about 6 weeks, vs control) was “significant decrease in insulin levels”, the leptin levels (db/db mice; 30 mg/kg SC daily, about 6 weeks, vs control) was “significant decrease in leptin levels” and the basal glucose levels (db/db mice; 5-hour-fasted, SC daily, vs vehicle) was “No significant differences”. For the same substance, the body weight gain (db/db mice; 15, 30 or 45 mg/kg SC daily, significant overall interaction) was “inhibited body weight gain”, the “glucose clearance during GTT” value (db/db mice; SC daily, week 4, vs control, all doses) was “No significant differences in glucose clearance” and the “insulin tolerance test (ITT)” value (db/db mice; SC daily, week 6, 1 IU/kg insulin, vs control) was “did not detect any significant differences”. For the same substance, the “GLUT4 gene expression in adipose tissue” value (GLUT4) was “increased” and the “ATF4 expression in liver” value (ATF4) was “decreased”.
